According to patent US11529350B2, “Tyrosine kinase non-receptor 1 (TNK1) inhibitors and uses thereof” (Sumitomo Pharma Oncology, Inc., priority 2019, dated 2022):

Experiments:
Format in all cases: cell-based
[1] = test system: K562 cells; experiment: In-vitro cell viability assay (CellTiter-Glo), K562; details: Homo sapiens
Description: (§1) Tnk1 is known to drive proliferation and survival of Hodgkin's lymphoma (HL) cells, such as K652 and L540 cell lines (Gu et al., Identification of activated Tnk1 kinase in Hodgkin's lymphoma, Leukemia 24: 861-65 ((2010)). Downregulation of Tnk1 inhibits cell growth and proliferation, and increases apoptosis. To study the individual test compounds in the context of HL cells, CellTiter-Glo® assays (Promega, Madison, Wis.) were performed according to the manufacturer's instructions. The CellTiter-Glo® assay system uses a thermostable luciferase to generate a stable “glow-type” luminescent signal while simultaneously inhibiting endogenous enzymes released during cell lysis (e.g., ATPases). As such, the assay provides a sensitive and stable luminescent output.
(§2) Reagent Preparation • 1. The CellTiter-Glo® Buffer was thawed and equilibrated to room temperature prior to use. • 2. The lyophilized CellTiter-Glo® Substrate was equilibrated to room temperature prior to use. • 3. An appropriate volume of CellTiter-Glo® Buffer was transferred into the amber bottle containing CellTiter-Glo® Substrate according the manufacturer's recommendation. The reconstituted lyophilized enzyme/substrate mixture formed the CellTiter-Glo® Reagent. • 4. The CellTiter-Glo® Reagent was mixed by gently vortexing, swirling or inverting the contents to obtain a homogeneous solution.
(§3) Protocol for the Cell Viability Assay • 1. A titration of the K652 or L540 cells was performed to determine the optimal number and ensure that the CellTiter-Glo® Assay was performed within the linear range. • 2. Opaque-walled multiwell plates (compatible with the luminometer) were prepared with K652 or L540 cells in culture medium, 100 μl per well for 96-well plates or 25 μl per well for 384-well plates. • 3. Control wells containing medium without cells were prepared to obtain a value for background luminescence. • 4. Test compound was added to experimental wells, and incubated according to culture protocol. • 5. The plate and its contents were equilibrated at room temperature for approximately 30 minutes.
(§4) Protocol for Generating an ATP Standard Curve • 1. 1 μM ATP was prepared in culture medium (100 μl of 1 μM ATP solution contains 10^−10 moles ATP). • 2. Serial tenfold dilutions of ATP in culture medium (1 μM to 10 nM; 100 μl contains 10^−10 to 10^−12 moles of ATP) were performed. • 3. A multiwell plate with varying concentrations of ATP standard in 100 μl medium (25 μl for a 384-well plate) was prepared. • 4. A volume of CellTiter-Glo® Reagent equal to the volume of ATP standard present in each well was added. • 5. Contents were mixed for 2 minutes on an orbital shaker. • 6. The plate was allowed to incubate at room temperature for 10 minutes to stabilize the luminescent signal. • 7. Luminescence was recorded.

[2] = test system: L540 cells; experiment: In-vitro cell viability assay (CellTiter-Glo), L540; details: Homo sapiens, L-540
Description: as §1, §2, §3, §4

[3] = target: T1, TNK1 (Homo sapiens, UniProt Q13470); experiment: TNK1 NanoBRET target engagement assay (HEK293); parameters: host or cells: HEK293; details: HEK293 cells, 2 hours; read-out: NanoBRET TE Assay (HEK293) IC50
T1 sequence (Q13470 1-666): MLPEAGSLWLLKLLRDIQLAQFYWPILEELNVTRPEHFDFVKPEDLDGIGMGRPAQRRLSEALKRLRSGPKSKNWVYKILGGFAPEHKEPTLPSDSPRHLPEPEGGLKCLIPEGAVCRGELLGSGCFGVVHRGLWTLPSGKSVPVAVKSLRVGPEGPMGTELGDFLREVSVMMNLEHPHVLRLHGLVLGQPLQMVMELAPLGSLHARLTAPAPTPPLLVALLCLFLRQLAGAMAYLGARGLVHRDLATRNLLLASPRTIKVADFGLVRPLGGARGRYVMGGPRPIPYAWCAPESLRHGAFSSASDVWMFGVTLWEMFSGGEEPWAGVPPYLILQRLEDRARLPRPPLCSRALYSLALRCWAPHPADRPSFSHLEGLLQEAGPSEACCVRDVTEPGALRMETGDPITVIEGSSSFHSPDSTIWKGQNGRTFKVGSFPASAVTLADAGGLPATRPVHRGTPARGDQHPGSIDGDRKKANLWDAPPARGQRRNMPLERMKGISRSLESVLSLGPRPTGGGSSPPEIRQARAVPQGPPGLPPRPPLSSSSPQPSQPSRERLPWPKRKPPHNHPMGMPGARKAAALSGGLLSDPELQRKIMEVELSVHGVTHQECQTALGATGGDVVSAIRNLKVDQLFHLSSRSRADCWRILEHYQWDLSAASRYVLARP
Text: The NanoBRET target engagement (TE) assay (Promega, Madison, Wis.) enables the interrogation of the displacement of a tracer compound in the active site of a recombinant kinase by a test compound in the intracellular setting. The assay enables simultaneous testing of permeability, solubility, and kinase inhibition, and tests the specific interaction of test agents with a kinase of interest, here, TNK1. The assay is based on the principle of bioluminescence resonance energy transfer (BRET). In the assay, a plasmid-encoded, luciferase-tagged form of TNK1 is transfected into cells. A tracer compound is tagged with a fluorophore that fluoresces when bound to the TNK1 protein. Readout is luminescence and fluorescence. Test compounds show activity by displacing the tracer, thus disrupting BRET.
Methods: The TNK1 NanoBRET TE assays were performed according to the manufacturer's protocol. Briefly, Nanoluc-TNK1 Fusion Vector (Promega, Madison, Wis., Cat. No. NV2181) was transfected into HEK293 cells in bulk (8×10^6 cells in a T175 flask). Up to 30 hours post-transfection, cells were harvested by trypsinization, resuspended at a concentration of 2×10^5 cells/mL, and seeded in 96-well plates at 85 μL/well. A test compound and the K5 tracer were added to each well, and the cells were incubated for 2 hours. Luminescence ([…]) and fluorescence ([…]) were measured to determine a BRET ratio. IC50 values were determined from the BRET ratios using the Graphpad Prism software (GraphPad Software, San Diego, Calif.).

| SMILES | IC50 [1] [µM] | IC50 [3] [nM] | IC50 [2] [µM] |
| --- | --- | --- | --- |
| CN1CCN(c2ccc(Nc3ncc(Cl)c(Nc4cccnc4N4CCCC4=O)n3)cc2)CC1 [compound 1, 1-(3-((5-chloro-2-((4-(4-methylpiperazin-1-yl)phenyl)amino)pyrimidin-4-yl)amino)pyridin-2-yl)pyrrolidin-2-one] | < 0.5 | < 150 | 0.5 to 1.5 |
| COc1cc(N2CCN(C)CC2)c(Cl)cc1Nc1ncc(Cl)c(Nc2cccnc2N2CCNC2=O)n1 [Example No. 21, 1-(3-((5-chloro-2-((5-chloro-2-methoxy-4-(4-methylpiperazin-1-yl)phenyl)amino)pyrimidin-4-yl)amino)pyridin-2-yl)imidazolidin-2-one] | ≥ 6 | < 150 | 1.5 to 6 |
| COc1cc(N2CCN(C)CC2)ccc1Nc1ncc(Cl)c(Nc2cccnc2N2CCCC2=O)n1 [compound 2, 1-(3-((5-chloro-2-((2-methoxy-4-(4-methylpiperazin-1-yl)phenyl)amino)pyrimidin-4-yl)amino)pyridin-2-yl)pyrrolidin-2-one] | 1.5 to 6 | < 150 | 0.5 to 1.5 |
| COc1cc(N2CCN(C)CC2)c(Cl)cc1Nc1ncc(Cl)c(Nc2cccnc2N2CCCC2=O)n1 [Example No. 13, 1-(3-((5-chloro-2-((5-chloro-2-methoxy-4-(4-methylpiperazin-1-yl)phenyl)amino)pyrimidin-4-yl)amino)pyridin-2-yl)pyrrolidin-2-one] | 1.5 to 6 | < 150 | < 0.5 |
| CN1CCN(c2c(Cl)cc(Nc3ncc(Cl)c(Nc4cccnc4N4CCCC4=O)n3)c3ccccc23)CC1 [Example No. 18, 1-(3-((5-chloro-2-((3-chloro-4-(4-methylpiperazin-1-yl)naphthalen-1-yl)amino)pyrimidin-4-yl)amino)pyridin-2-yl)pyrrolidin-2-one] | ≥ 6 | < 150 | < 0.5 |

Continued, in another order:

| IC50 [1] [µM] | IC50 [3] [nM] | SMILES | IC50 [2] [µM] |
| --- | --- | --- | --- |
| 1.5 to 6 | > 1000 | CC(C)Oc1cc(N2CCN(C)CC2)ccc1Nc1ncc(Cl)c(Nc2cccnc2N(C)C)n1 [compound 4, 5-chloro-N^4-(2-(dimethylamino)pyridin-3-yl)-N^2-(2-isopropoxy-4-(4-methylpiperazin-1-yl)phenyl)pyrimidine-2,4-diamine] | ≥ 6 |
| ≥ 6 | < 150 | COc1cc(N2CCN(C)CC2)c(C)cc1Nc1ncc(Cl)c(Nc2cccnc2N2CCNC2=O)n1 [compound 9, 1-(3-((5-chloro-2-((2-methoxy-5-methyl-4-(4-methylpiperazin-1-yl)phenyl)amino)pyrimidin-4-yl)amino)pyridin-2-yl)imidazolidin-2-one] | < 0.5 |
| 1.5 to 6 | 150 to 1000 | CN1CCN(c2ccc(Nc3ncc(Cl)c(Nc4cccnc4N(C)C)n3)cc2)CC1 [compound 5, 5-chloro-N^4-(2-(dimethylamino)pyridin-3-yl)-N^2-(4-(4-methylpiperazin-1-yl)phenyl)pyrimidine-2,4-diamine] | 0.5 to 1.5 |
| – | > 1000 | CCOc1cc(N2CCN(C)CC2)ccc1Nc1ncc(Cl)c(Nc2cccnc2N(C)C)n1 [compound 3, 5-chloro-N^4-(2-(dimethylamino)pyridin-3-yl)-N^2-(2-ethoxy-4-(4-methylpiperazin-1-yl)phenyl)pyrimidine-2,4-diamine] | ≥ 6 |
| ≥ 6 | < 150 | COc1cc(N2CCN(C)CC2)c(C)cc1Nc1ncc(Br)c(Nc2cccnc2N(C)C)n1 [compound 10, 5-bromo-N^4-(2-(dimethylamino)pyridin-3-yl)-N^2-(2-methoxy-5-methyl-4-(4-methylpiperazin-1-yl)phenyl)pyrimidine-2,4-diamine] | < 0.5 |
